This note sets out measurements from patent publication US20210238162A1, “CHEMICAL COMPOUNDS” (GlaxoSmithKline Intellectual Property Development Limited, priority 2015, published 2021).

Where a name gives a salt, the structure may show the parent alone. Read-outs that look alike come from different tables or passages of the source. Bounds are passed on as bounds.

The experiment deals with T1, haematopoietic prostaglandin D synthase (H-PGDS) (Homo sapiens, UniProt O60760).
T1 construct: Full length human H-PGDS cDNA (Invitrogen Ultimate ORF IOH13026) was amplified by PCR; made in house; host or cells: E. coli BL21 (DE3*), vector pET22b+
In words: H-PGDS RapidFire High Throughput Mass Spectrometry Assay. Format: biochemical. Put shortly: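 PGH2 (~10 μM burst) generated in situ from arachidonic acid by FLAG-tagged human COX-2 (Sf9-expressed), then converted to PGD2 by full-length human His-tagged H-PGDS from E. coli. PGD2 and PGF2α (substrate surrogate) quantified by RapidFire SPE-triple quadrupole MS; percent conversion calculated.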

[1] abbreviates: H-PGDS RapidFire MS assay, mean pIC50, read-out: Potency Range (mean pIC50) (converted).
Setting [2] is: in at least one experimental run, read-out: H-PGDS pIC50 value (converted).

T1 sequence (O60760 whole entry): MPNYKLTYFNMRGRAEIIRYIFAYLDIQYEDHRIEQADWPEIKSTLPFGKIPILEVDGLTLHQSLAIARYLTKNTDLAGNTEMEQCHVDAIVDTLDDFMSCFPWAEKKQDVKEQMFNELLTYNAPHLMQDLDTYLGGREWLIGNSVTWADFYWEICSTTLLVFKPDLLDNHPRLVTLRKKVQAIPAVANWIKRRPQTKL

`CC(C)(O)[C@H]1CC[C@H](NC(=O)c2cnc3cc(OC(F)F)c(F)cc3c2)CC1` [Example 51, 7-(Difluoromethoxy)-6-fluoro-N-(trans-4-(2-hydroxypropan-2-yl)cyclohexyl)quinoline-3-carboxamide]: under setting [1], the IC50 is 10 to 79.4 nM.

For the compound `C[N+](C)([O-])[C@H]1CC[C@H](NC(=O)c2cnc3cc(OC(F)F)c(Cl)cc3c2)CC1` [Example 208, trans-4-(6-Chloro-7-(difluoromethoxy)quinoline-3-carboxamido)-N,N-dimethylcyclohexanamine oxide], the IC50 under setting [1] is 10 to 79.4 nM.

`C[C@@H]1CCN1c1cc2ncc(C(=O)N[C@H]3CC[C@H](C(C)(C)O)CC3)cc2cc1F` [Example 175, 6-Fluoro-N-(trans-4-(2-hydroxypropan-2-yl)cyclohexyl)-7-((R)-2-methylazetidin-1-yl)quinoline-3-carboxamide]: the IC50 under setting [1] was 100 to 1000 nM.

In the case of `O=C(N[C@H]1CC[C@H](C(O)C(F)(F)F)CC1)c1cnc2cc(OC(F)F)ccc2c1` (stereo partly drawn) [Example 15, 7-(Difluoromethoxy)-N-(trans-4-(2,2,2-trifluoro-1-hydroxyethyl)cyclohexyl)quinoline-3-carboxamide], the IC50 by setting is: under setting [1], less than 10 nM; under setting [2], 7.94 nM.

Consider `C[C@@H]1CNC(=O)[C@H]1NC(=O)c1cnc2cc(OC(F)F)c(Cl)cc2c1` [Example 144, 6-Chloro-7-(difluoromethoxy)-N-((3S,4R)-4-methy-2-oxopyrrolidin-3-yl)quinoline-3-carboxamide], for which the IC50 under setting [1] is less than 10 nM.

Turning to `O=C(N[C@H]1C[C@H](N2CC(O)(C(F)(F)F)C2)C1)c1cnc2cc(OC(F)F)c(Cl)cc2c1` [Example 214, 6-Chloro-7-(difluoromethoxy)-N-((trans)-3-(3-hydroxy-3-(trifluoromethyl)azetidin-1-yl)cyclobutyl)quinoline-3-carboxamide], the IC50 was less than 10 nM under setting [1] and 6.31 nM under setting [2].

For `CC(C)(O)[C@H]1CC[C@H](NC(=O)c2cnc3cc(N4CCCC4)c(F)cc3c2)CC1` [Example 163, 6-Fluoro-N-(trans-4-(2-hydroxypropan-2-yl)cyclohexyl)-7-(pyrrolidin-1-yl)quinoline-3-carboxamide], the IC50 under setting [1] is 100 to 1000 nM.

Take `CC(F)(F)c1cc2ncc(C(=O)N[C@H]3CC[C@H](C(C)(C)O)CC3)cc2cc1Cl` [Example 231, 6-Chloro-7-(1,1-difluoroethyl)-N-((trans)-4-(2-hydroxypropan-2-yl)cyclohexyl)quinoline-3-carboxamide]: the IC50 under setting [1] is less than 10 nM.

Turning to `CC1CCN1c1cc2ncc(C(=O)N[C@H]3CC[C@H](C(C)(C)O)CC3)cc2cc1F` (mixture of isomers) [Example 170, 6-Fluoro-N-(trans-4-(2-hydroxypropan-2-yl)cyclohexyl)-7-(2-methylazetidin-1-yl)quinoline-3-carboxamide], the IC50 under setting [1] was 10 to 79.4 nM.

On to `CC(C)(O)[C@H]1CC[C@H](NC(=O)c2cnc3cc(C4CCC4)c(Cl)cc3c2)CC1` [Example 179, 6-Chloro-7-cyclobutyl-N-(trans-4-(2-hydroxypropan-yl)cyclohexyl)quinoline-3-carboxamide], for which the IC50 under setting [1] was less than 10 nM.

Regarding `CC(C)(O)[C@H]1CC[C@H](NC(=O)c2cnc3cc(C4CC4)ccc3c2)CC1` [Example 192, 7-Cyclopropyl-N-(trans-4-(2-hydroxypropan-2-yl)cyclohexyl)quinoline-3-carboxamide], the IC50 under setting [1] is less than 10 nM.

As for `CCc1cccc2cc(C(=O)Nc3nccs3)cnc12` [Example 105, 8-Ethyl-N-(thiazol-2-yl)quinoline-3-carboxamide], the IC50 under setting [1] was 100 to 1000 nM.

Take `CC1CN(c2cc3ncc(C(=O)N[C@@H]4C(=O)NC[C@H]4C)cc3cc2F)C1` [Example 207, 6-Fluoro-N-((3S,4R)-4-methyl-2-oxopyrrolidin-3-yl)-7-(3-methylazetidin-1-yl)quinoline-3-carboxamide]: the IC50 under setting [1] was 100 to 1000 nM.

Turning to `CC(C)(O)[C@H]1CC[C@H](NC(=O)c2cnc3cc(Br)ccc3c2)CC1` [Example 191, 7-Bromo-N-(trans-4-(2-hydroxypropan-2-yl)cyclohexyl)quinoline-3-carboxamide], under setting [1], the IC50 is 10 to 79.4 nM.

Regarding `CC(O)CO[C@H]1CC[C@H](NC(=O)c2cnc3cc(OC(F)F)ccc3c2)CC1` (stereo partly drawn) [Example 16, 7-(Difluoromethoxy)-N-(trans-4-(2-hvdroxypropoxy)cyclohexyl)quinoline-3-carboxamide], the IC50 under setting [1] was 10 to 79.4 nM.

As to `C[C@H]1CCN1c1cc2ncc(C(=O)N[C@H]3CC[C@H](C(C)(C)O)CC3)cc2cc1Cl` [Example 187, 6-Chloro-N-(trans-4-(2-hydroxypropan-2-yl)cyclohexyl)-7-((S)-2-methylazetidin-1-yl)quinoline-3-carboxamide], the IC50 is less than 10 nM under setting [1] and 6.31 nM under setting [2].

For the compound `CC1CCN1c1cc2ncc(C(=O)N[C@H]3CCNC3=O)cc2cc1Cl` (stereo partly drawn) [Example 182, 6-Chloro-7-(2-methylazetidin-1-yl)-N—((S)-2-oxopyrrolidin-3-yl)quinoline-3-carboxamide], the IC50 under setting [1] was 10 to 79.4 nM.

As for `C#CCCNC(=O)CO[C@H]1CC[C@H](NC(=O)c2cnc3cc(OC(F)F)c(F)cc3c2)CC1` [Example 103, N-(trans-4-(2-(but-3-yn-1-ylamino)-2-oxoethoxy)cyclohexyl)-7-(difluoromethoxy)-6-fluoroquinoline-3-carboxamide], the IC50 under setting [1] is 10 to 79.4 nM.

For the compound `C[C@]1(O)CC[C@H](NC(=O)c2cnc3cc(OC(F)F)c(Cl)cc3c2)CC1` [Example 143, 6-Chloro-7-(difluoromethoxy)-N-((1r,4r)-4-hydroxy-4-methylcyclohexyl)quinoline-3-carboxamide], the IC50 under setting [1] was less than 10 nM.

Consider `COc1cccc2cc(C(=O)Nc3nccs3)cnc12` [Example 28, 8-Methoxy-N-(thiazol-2-yl)quinoline-3-carboxamide], for which the IC50 under setting [1] was 10 to 79.4 nM.

Consider `CC(N[C@H]1CC[C@H](NC(=O)c2cnc3cc(OC(F)F)c(Cl)cc3c2)CC1)C(F)F` (mixture of isomers) [Example 125, 6-Chloro-7-(difluoromethoxy)-N-(trans-4-((1,1-difluoropropan-2-yl)amino)cyclohexyl)quinoline-3-carboxamide], for which the IC50 under setting [1] was less than 10 nM.

Turning to `CN(C)c1ccc2cc(C(=O)N[C@H]3CC[C@H](C(C)(C)O)CC3)cnc2c1` [Example 196, 7-(Dimethylamino)-N-(trans-4-(2-hydroxypropan-2-yl)cyclohexyl)quinoline-3-carboxamide], the IC50 under setting [1] was less than 10 nM.

As to `O=C(NC1CCc2ccccc2NC1=O)c1cnc2cc(OC(F)F)c(Cl)cc2c1` (stereo not shown) [Example 237, 6-Chloro-7-(difluoromethoxy)-N-(2-oxo-2,3,4,5-tetrahydro-1H-benzo[b]azepin-3-yl)quinoline-3-carboxamide], the IC50 under setting [1] is less than 10 nM.

As for `COc1cc(F)c2cc(C(=O)NC3CCN(c4nnnn4C)CC3)cnc2c1` [Example 30, 5-Fluoro-7-methoxy-N-(1-(1-methyl-1H-tetrazol-5-yl)piperidin-4-yl)quinoline-3-carboxamide], under setting [1], the IC50 was 10 to 79.4 nM.

As to `CC1(O)CC(NC(=O)c2cnc3cc(N4CCC4)c(Cl)cc3c2)C1` (stereo not shown) [Example 167, 7-(Azetidin-1-yl)-6-chloro-N-(3-hydroxy-3-methylcyclobutyl)quinoline-3-carboxamide trifluoroacetic Acid Salt], the IC50 under setting [1] is less than 10 nM.

In the case of `CS(=O)(=O)CCO[C@H]1CC[C@H](NC(=O)c2cnc3cc(OC(F)F)c(Cl)cc3c2)CC1` [Example 139, 6-Chloro-7-(difluoromethoxy)-N-(trans-4-(2-(methylsulfonyl)ethoxy)cyclohexyl)quinoline-3-carboxamide], the IC50 under setting [1] is less than 10 nM.

On to `Cn1nnnc1N1CCC(NC(=O)c2cnc3cc(C(F)(F)F)ccc3c2)CC1` [Example 107, N-(1-(1-Methyl-1H-tetrazol-5-yl)piperidin-4-yl)-7-(trifluoromethyl)quinoline-3-carboxamide], for which, under setting [1], the IC50 was 100 to 1000 nM.

Regarding `O=C(N[C@H]1CC[C@@H](N2CC(F)C2)CC1)c1cnc2cc(OC(F)F)c(F)cc2c1` [Example 89, 7-(Difluoromethoxy)-6-fluoro-N-(cis-4-(3-fluoroazetidin-1-yl)cyclohexyl)quinoline-3-carboxamide], under setting [1], the IC50 is 100 to 1000 nM.

Regarding `COc1cccc2cc(C(=O)N[C@H]3CC[C@H](C(C)(C)O)CC3)cnc12` [Example 189, N-(trans-4-(2-Hydroxypropan-2-yl)cyclohexyl)-8-methoxyquinoline-3-carboxamide], under setting [1], the IC50 is 100 to 1000 nM.

On to `O=C(N[C@H]1CCNC1=O)c1cnc2cc(OC(F)F)c(Br)cc2c1` [Example 154, (S)-6-Bromo-7-(difluoromethoxy)-N-(2-oxopyrrolidin-3-yl)quinoline-3-carboxamide], for which, under setting [1], the IC50 was less than 10 nM.

Turning to `CC(C)(F)c1cc2ncc(C(=O)N[C@H]3CC[C@H](C(C)(C)O)CC3)cc2cc1Cl` [Example 230, 6-Chloro-7-(2-fluoropropan-2-yl)-N-((trans)-4-(2-hydroxypropan-2-yl)cyclohexyl)quinoline-3-carboxamide], under setting [1], the IC50 is less than 10 nM.

`CN(C)C(=O)[C@H]1CC[C@H](NC(=O)c2cnc3cc(OC(F)F)ccc3c2)CC1` [Example 5, 7-(Difluoromethoxy)-N-((trans)-4-(dimethylcarbamoyl)cyclohexyl)quinoline-3-carboxamide]: the IC50 under setting [1] was 10 to 79.4 nM.

As to `C[C@H](NC[C@H]1CC[C@H](NC(=O)c2cnc3cc(OC(F)F)c(F)cc3c2)CC1)C(F)F` [Example 100, 7-(Difluoromethoxy)-N-(trans-4-((((S)-1,1-difluoropropan-2-yl)amino)methyl)cyclohexyl)-6-fluoroquinoline-3-carboxamide], the IC50 under setting [1] is 10 to 79.4 nM.

As to `Cn1nnnc1N1CCC(NC(=O)c2cnc3c4c(ccc3c2)CCO4)CC1` [Example 112, N-(1-(1-Methyl-1H-tetrazol-5-yl)piperidin-4-yl)-2,3-dihydrofuro[3,2-h]quinoline-7-carboxamide], under setting [1], the IC50 was 10 to 79.4 nM.
